Assay results from patent publication US11667602B2, “Compounds and their use” (AstraZeneca AB, priority 2020, dated 2023).
Values after ≈ are worked out from the molar mass of the structure shown. Read-outs that look alike come from different tables or passages of the source.

Key:
[1] = Human Plasma Protein Binding (Test B); type: in vitro ADME; settings: fraction unbound (fu)
Procedure, shortened: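 Values given as % free (fu) in human plasma, using the method of Wernevik et al. (2020). For compounds tested more than once, the arithmetic mean is given.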

[2] = Human Liver Microsomal Stability (Test C); type: in vitro ADME
Procedure, shortened: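 CLint (μl/min/mg protein) derived from compound depletion in human liver microsomes following a published standardized early-DMPK protocol; replicate determinations given as arithmetic mean.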

[3] = Rat Hepatocyte Stability (Test E); type: in vitro ADME; settings: geometric mean if run multiple times
Procedure, shortened: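 Intrinsic clearance in rat hepatocytes, expressed as μl/min/10^6 cells, following the literature integrated DMPK panel method. Repeat determinations combined as geometric mean.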

Solubility (Test F) = type: physicochemical; settings: arithmetic mean if run multiple times
Protocol: The assay was conducted according to the Solubility Assay described in pages 164-167 of Wernevik, J. et al., “A Fully Integrated Assay Panel for Early Drug Metabolism and Pharmacokinetics Profiling”, Assay and Drug Development Technologies, 2020, 18(4), 157-179. Data are reported in Table 36 as solubility ([…]. Where the assay was run multiple times for the same compound, the arithmetic mean is reported.

human RXFP1 = molecular target: T1, human RXFP1 (Homo sapiens, UniProt Q9HBX9); assay: RXFP1 Hu cAMP (Test A); type: cell-based; set-up: expressed in transfected cells; host or cells: Jump-In T-REx CHO-K1 cells (ThermoFisher), induced with 10 ng/ml doxycycline for 24 h
T1 sequence (Q9HBX9 1-757): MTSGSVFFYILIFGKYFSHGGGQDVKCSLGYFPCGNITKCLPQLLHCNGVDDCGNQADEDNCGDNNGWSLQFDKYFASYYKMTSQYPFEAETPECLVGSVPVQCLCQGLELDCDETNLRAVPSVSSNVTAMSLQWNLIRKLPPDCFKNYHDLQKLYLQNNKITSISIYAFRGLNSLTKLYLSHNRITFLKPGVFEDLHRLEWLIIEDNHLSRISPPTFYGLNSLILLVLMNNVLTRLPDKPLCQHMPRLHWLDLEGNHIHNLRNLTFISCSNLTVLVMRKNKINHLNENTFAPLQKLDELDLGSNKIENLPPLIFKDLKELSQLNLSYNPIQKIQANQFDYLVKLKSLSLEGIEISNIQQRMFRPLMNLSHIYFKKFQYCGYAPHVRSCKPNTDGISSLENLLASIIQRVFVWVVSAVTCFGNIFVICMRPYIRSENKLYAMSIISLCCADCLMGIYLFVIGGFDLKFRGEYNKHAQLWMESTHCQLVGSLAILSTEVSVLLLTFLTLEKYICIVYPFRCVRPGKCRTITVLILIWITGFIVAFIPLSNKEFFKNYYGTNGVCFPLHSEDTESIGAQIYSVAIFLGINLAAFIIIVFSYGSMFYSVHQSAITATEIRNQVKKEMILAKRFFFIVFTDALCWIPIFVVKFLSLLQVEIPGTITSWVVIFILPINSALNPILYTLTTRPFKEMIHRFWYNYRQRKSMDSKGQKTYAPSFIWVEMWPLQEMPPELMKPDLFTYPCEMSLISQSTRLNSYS
Procedure, shortened: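 Cells: CHO-K1 stably carrying human RXFP1, expressed after 24 h 10 ng/ml doxycycline; 0.5 mM IBMX final, HTRF detection after 2 h at room temperature.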

[4] = RXFP1 Hu cAMP, read-out: Test A EC50

| Structure (SMILES) | Test B Human Plasma Protein Binding (% free) [1] [% free] | microsomal CLint ([2]; human, liver microsomes) [µL/min/mg] | hepatocyte CLint ([3]; rat, hepatocytes) [µL/min/1e6 cells] | solubility (Solubility (Test F)) [µM] | Test A Sinf (human RXFP1; RXFP1 Hu cAMP) [%] | EC50 (human RXFP1; [4]) [µM] | microsomal CLint ([2]; human liver microsomes) [µL/min/mg] | hepatocyte CLint ([3]; rat hepatocytes) [µL/min/1e6 cells] | EC50 (human RXFP1; Test A EC50, RXFP1 Hu cAMP) [µM] |
| --- | --- | --- | --- | --- | --- | --- | --- | --- | --- |
| COc1cc(F)c(C2=CCC(C(=O)O)CC2)cc1C(=O)N[C@@H]1[C@H]2CC[C@H](C2)[C@@H]1C(=O)Nc1cccc(S(=O)(=O)C(F)(F)F)c1 (mixture of isomers) [Example 267, (RS)-2′-Fluoro-4′-methoxy-5′-(((1S,2R,3S,4R)-3-((3-((trifluoromethyl)sulfonyl)phenyl)carbamoyl)bicyclo[2.2.1]heptan-2-yl)carbamoyl)-2,3,4,5-tetrahydro-[1,1′-biphenyl]-4-carboxylic acid] | 0.39 | 32 | 14 | 680 (≈ 434 µg/mL) | 93 | > 0.35 |  |  |  |
| COc1cc(C#N)c(O[C@H]2CC[C@@](C)(C(=O)O)CC2)cc1C(=O)N[C@@H]1[C@H]2CC[C@H](C2)[C@@H]1C(=O)NCC1(F)CCC1 [Example 94] | 14 | 9 | 32 | 830 (≈ 461 µg/mL) | 111 | > 0.71 |  |  |  |
| COc1cc(C#N)c(O[C@H]2CC[C@@](C)(C(=O)O)CC2)cc1C(=O)N[C@@H]1[C@H]2CC[C@H](C2)[C@@H]1C(=O)NCC1(O)CCCC1 [Example 74] | 26 | < 3 | 10 | 920 (≈ 522 µg/mL) |  | > 5 |  |  |  |
| COc1cc(F)c(O[C@H]2CC[C@@H](C(=O)O)CC2)cc1C(=O)N[C@@H]1[C@H]2CC[C@H](C2)[C@@H]1C(=O)Nc1ccc(C#N)c(C(F)(F)F)c1 [Example 28] | 0.94 |  |  | 690 (≈ 426 µg/mL) | 96 |  | 32 | 51 | 0.044 |
| COc1cc(F)c(O[C@H]2CC[C@@](C)(C(=O)O)CC2)cc1C(=O)Nc1c(C)cccc1C(=O)NCC1(C)CCC1 [Example 156, (1s,4s)-4-(2-Fluoro-4-methoxy-5-((2-methyl-6-(((1-methylcyclobutyl)methyl)carbamoyl)phenyl)carbamoyl)phenoxy)-1-methylcyclohexane-1-carboxylic acid] | 3.2 | 4.3 | 22 | 770 (≈ 416 µg/mL) | 97 |  |  |  |  |
| COc1cc(F)c(O[C@H]2CC[C@@H](C(=O)O)CC2)cc1C(=O)N[C@@H]1[C@H]2CC[C@H](C2)[C@@H]1C(=O)Nc1cccc(CF)c1 [Example 11, (1S,4s)-4-(2-Fluoro-5-(((1S,2R,3S,4R)-3-((3-(fluoromethyl)phenyl)carbamoyl)bicyclo[2.2.1]heptan-2-yl)carbamoyl)-4-methoxyphenoxy)cyclohexane-1-carboxylic acid] | 3.3 | 36 | > 300 | > 1000 | 104 |  |  |  |  |
| COc1cc(F)c(O[C@H]2CC[C@@H](C(=O)O)CC2)cc1C(=O)N[C@@H]1[C@H]2CC[C@H](C2)[C@@H]1C(=O)NCCC1CC1 [Example 176] | 9.3 | 8 | 120 | 210 (≈ 108 µg/mL) | 75 | > 4.3 |  |  |  |

Continued, in another order:

| Test B Human Plasma Protein Binding (% free) [1] [% free] | microsomal CLint ([2]; human, liver microsomes) [µL/min/mg] | hepatocyte CLint ([3]; rat, hepatocytes) [µL/min/1e6 cells] | solubility (Solubility (Test F)) [µM] | Test A Sinf (human RXFP1; RXFP1 Hu cAMP) [%] | EC50 (human RXFP1; [4]) [µM] | Structure (SMILES) | microsomal CLint ([2]; human liver microsomes) [µL/min/mg] | hepatocyte CLint ([3]; rat hepatocytes) [µL/min/1e6 cells] | EC50 (human RXFP1; Test A EC50, RXFP1 Hu cAMP) [µM] |
| --- | --- | --- | --- | --- | --- | --- | --- | --- | --- |
| 3 | 61 | 22 | 760 (≈ 490 µg/mL) | 101 | > 0.23 | O=C(N[C@@H]1[C@H]2CC[C@H](C2)[C@@H]1C(=O)Nc1cccc(S(=O)(=O)C(F)(F)F)c1)c1cc(O[C@H]2CC[C@@H](C(=O)O)CC2)c(F)cc1F [Example 430] |  |  |  |
| 0.10 | 21 | 23 | 54 (≈ 33.9 µg/mL) | 101 | 0.088 | COc1cc(F)c(-c2ccc(C(=O)O)cc2)cc1C(=O)N[C@@H]1[C@H]2CC[C@H](C2)[C@@H]1C(=O)Nc1cccc(S(F)(F)(F)(F)F)c1 [Example 209, 2′-Fluoro-4′-methoxy-5′-(((1S,2R,3S,4R)-3-((3-(pentafluoro-λ6-sulfaneyl)phenyl)carbamoyl)bicyclo[2.2.1]heptan-2-yl)carbamoyl)-[1,1′-biphenyl]-4-carboxylic acid] |  |  |  |
| 17 | 11 | 26 | 810 (≈ 471 µg/mL) | 103 | 0.25 | COc1cc(C#N)c(O[C@H]2CC[C@@](C)(C(=O)O)CC2)cc1C(=O)N[C@@H]1[C@H]2CC[C@H](C2)[C@@H]1C(=O)NCC1(CO)CCCC1 [Example 109] |  |  |  |
| 0.54 | 57 | 30 | 200 (≈ 144 µg/mL) | 104 | 0.064 | COc1cc(Br)c(O[C@H]2CC[C@@H](C(=O)O)CC2)cc1C(=O)N[C@@H]1[C@H]2CC[C@H](C2)[C@@H]1C(=O)Nc1cccc(S(=O)(=O)C(F)(F)F)c1 [Example 464, (1S,4s)-4-(2-Bromo-4-methoxy-5-(((1S,2R,3S,4R)-3-((3-((trifluoromethyl)sulfonyl)phenyl)carbamoyl)bicyclo[2.2.1]heptan-2-yl)carbamoyl)phenoxy)cyclohexane-1-carboxylic acid] |  |  |  |
| 0.67 | 21 | 43 | 120 (≈ 72.8 µg/mL) | 109 | 0.035 | COc1cc(F)c(O[C@H]2CC[C@@H](C(=O)O)CC2)cc1C(=O)N[C@@H]1[C@H]2CC[C@H](C2)[C@@H]1C(=O)Nc1ccc(C)c(C(F)(F)F)c1 [Example 192, (1S,4s)-4-(2-Fluoro-4-methoxy-5-(((1S,2R,3S,4R)-3-((4-methyl-3-(trifluoromethyl)phenyl)carbamoyl)bicyclo[2.2.1]heptan-2-yl)carbamoyl)phenoxy)cyclohexane-1-carboxylic acid] |  |  |  |
| 3.7 | 18 | 13 | 940 (≈ 559 µg/mL) | 81 | 0.75 | COc1cc(F)c(O[C@H]2CC[C@@H](C(=O)O)CC2)cc1C(=O)N[C@@H]1[C@H]2CC[C@H](C2)[C@@H]1C(=O)Nc1cc(C(F)(F)F)ncn1 [Example 31] |  |  |  |
| 0.32 | 300 | 47 | 2 (≈ 1.41 µg/mL) | 103 | 0.37 | COc1cc(F)c(O[C@H]2CC[C@H](NS(C)(=O)=O)CC2)cc1C(=O)N[C@@H]1[C@H]2CC[C@H](C2)[C@@H]1C(=O)Nc1cccc(S(=O)(=O)C(F)(F)F)c1 [Example 460, (1R,2S,3R,4S)-3-(4-fluoro-2-methoxy-5-(((1r,4R)-4-(methylsulfonamido)cyclohexyl)oxy)benzamido)-N-(3-((trifluoromethyl)sulfonyl)phenyl)bicyclo[2.2.1]heptane-2-carboxamide] |  |  |  |
| 1.3 | 14 | 13 | 390 (≈ 256 µg/mL) | 94 | 0.42 | COc1cc(F)c(O[C@H]2CC[C@@H](C(=O)O)CC2)cc1C(=O)N[C@@H]1[C@H]2CC[C@H](C2)[C@@H]1C(=O)Nc1ccc(S(=O)(=O)C(F)(F)F)cc1 [Example 15, (1S,4s)-4-(2-Fluoro-4-methoxy-5-(((1S,2R,3S,4R)-3-((4-((trifluoromethyl)sulfonyl)phenyl)carbamoyl)bicyclo[2.2.1]heptan-2-yl)carbamoyl)phenoxy)cyclohexane-1-carboxylic acid] |  |  |  |
